Holding throughout (assay type): cell-based
Assay [1] concerns the target T1, GLP-1R (Homo sapiens, UniProt P43220). The assay is described as follows: PathHunter β-arrestin assay. How it is done:
The effects of the chemical entities described herein on β-arrestin signaling and associated downstream processes (e.g., those delineated above) can be assessed using conventional methods, e.g., PathHunter β-arrestin Assay for determining β-arresting coupling (see Examples section). […] It has been shown that b-arrestin coupling is a key strep in receptor internalization and subsequent de-sensitization and attenuation of signaling.
5,000 cells were seeded in appropriate cell culture media per well in a low volume 384-well tissue culture plate. The assay plate was incubated with cells overnight at 37° C. and 5% CO2. The media was removed, and 5 μL of appropriate cell culture media containing 0.2% BSA was added. Agonist serial dilutions in a separate 384 well dilution plate in a 22-point series of 2× dilutions of agonist in DMSO were performed as follows. 80 μL of the highest concentration of Agonist/DMSO was added to well No. 1. 40 μL was removed from well No. 1, and added to well No. 2, followed by gentle mixing. […] This process was repeated until well No. 22. Additional serial dilutions for additional agonists were set up in a similar manner. 100 nL of each 2× agonist serial dilution was added in duplicate to the designated agonist rows of the assay plate using the Labcyte ECHO. Assay plate was incubated for 90 minutes at 37° C. and 5% CO2. A stock of Working Detection Solution in a separate 15 ml polypropylene tube was prepared by mixing 19 parts of Cell Assay Buffer, 5 parts of Substrate Reagent 1, 1 part Substrate Reagent 2. […] Plates were spun down briefly. Assay plate was incubated for 3 hour at room temperature in the dark for the immunocompetition reaction to occur. Samples were read on Tecan i-control plate reader using luminescence mode with 100 ms integration time. Data analysis was performed using GraphPad Prism.

Another assay deals with T2, GIP-R (Homo sapiens, UniProt P48546).
T2 sequence (P48546 22-466): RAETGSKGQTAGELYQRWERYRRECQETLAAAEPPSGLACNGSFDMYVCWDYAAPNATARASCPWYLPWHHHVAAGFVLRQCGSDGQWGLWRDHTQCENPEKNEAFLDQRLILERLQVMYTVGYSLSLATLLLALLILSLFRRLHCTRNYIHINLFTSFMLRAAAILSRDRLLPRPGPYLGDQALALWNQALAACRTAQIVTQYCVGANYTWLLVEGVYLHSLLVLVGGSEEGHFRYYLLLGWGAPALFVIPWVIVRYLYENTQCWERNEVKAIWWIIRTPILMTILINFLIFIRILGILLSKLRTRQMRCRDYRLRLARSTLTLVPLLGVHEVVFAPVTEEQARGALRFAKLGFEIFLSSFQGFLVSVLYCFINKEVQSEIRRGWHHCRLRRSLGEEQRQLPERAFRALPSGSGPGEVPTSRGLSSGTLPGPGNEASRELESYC
The experiment in a line: HitHunter cAMP assay (GIP-R). To be noted: for Emax: read-out: (Emax) GIP-R. The method, boiled down: (§1)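 cAMP, luminescence read: agonist 22-pt 2× dilution in DMSO, duplicate, 30 min RT on 10,000 cells/well in 1×HBSS/10 mM HEPES/625 μM IBMX/0.2% BSA; anti-cAMP reagent 1 h RT dark, then O/N RT dark before read.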
(Changes in cAMP serve as a functional read-out for many G protein-coupled receptors.)

For assay [2], the target named is T1, GLP-1R. The assay is described as follows: HitHunter cAMP assay (GLP-1R). To be noted: for Emax: read-out: (Emax) GLP-1R. The method, boiled down:
as §1

Where [3] appears, read: PathHunter β-arrestin assay, read-out: β-arrestin activity EC50.
Setting [4] is: Table 3, cAMP, read-out: EC50 GIP-R/nM.
[5] abbreviates: Table 3A, cAMP, read-out: EC50 GIP-R/nM.
The mark [6] stands for this setting: Table 3, cAMP, read-out: EC50 GLP-1R/nM.
Setting [7] is: Table 3A, cAMP, read-out: EC50 GLP-1R/nM.

Molecules are shown by their SMILES. Like-named read-outs stand apart in the source and are kept apart here. Bounds are passed on as bounds.

T1 sequence (P43220 24-463): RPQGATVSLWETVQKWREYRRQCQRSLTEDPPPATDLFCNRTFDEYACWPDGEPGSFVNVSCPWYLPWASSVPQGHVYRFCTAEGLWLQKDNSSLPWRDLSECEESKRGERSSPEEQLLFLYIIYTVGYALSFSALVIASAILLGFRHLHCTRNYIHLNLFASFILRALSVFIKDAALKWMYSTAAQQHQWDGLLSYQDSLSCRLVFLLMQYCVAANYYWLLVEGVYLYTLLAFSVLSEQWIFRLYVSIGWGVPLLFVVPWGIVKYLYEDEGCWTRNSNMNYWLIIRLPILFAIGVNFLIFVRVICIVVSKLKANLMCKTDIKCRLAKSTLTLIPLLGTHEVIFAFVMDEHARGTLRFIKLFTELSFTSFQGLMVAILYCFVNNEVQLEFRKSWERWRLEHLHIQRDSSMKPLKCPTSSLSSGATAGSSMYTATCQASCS

In general, Emax refers to the size of the effect at its maximum, as opposed to the concentration needed. Regarding `CCCCCCCCCCCCCCCC(=O)N[C@@H](CCC(=O)NCCCC[C@H](NC(=O)[C@H](CO)NC(=O)[C@@H]1CCCN1C(=O)[C@@H]1CCCN1C(=O)[C@@H]1CCCN1C(=O)[C@H](C)NC(=O)CNC(=O)[C@H](CO)NC(=O)[C@H](CO)NC(=O)[C@@H]1CCCN1C(=O)CNC(=O)CNC(=O)[C@H](C)NC(=O)[C@H](CC(C)C)NC(=O)[C@H](CC(C)C)NC(=O)[C@H](Cc1c[nH]c2ccccc12)NC(=O)[C@H](CC(N)=O)NC(=O)[C@@H](NC(=O)[C@H](Cc1ccccc1)NC(=O)[C@H](CCC(=O)O)NC(=O)C(C)(C)NC(=O)[C@H](C)NC(=O)[C@H](C)NC(=O)[C@H](CCC(N)=O)NC(=O)[C@H](CCCCN)NC(=O)[C@H](CC(=O)O)NC(=O)[C@H](CC(C)C)NC(=O)[C@H](Cc1ccc(O)cc1)NC(=O)[C@@H](NC(=O)[C@H](CO)NC(=O)[C@H](Cc1ccc(O)cc1)NC(=O)[C@H](CC(=O)O)NC(=O)[C@H](CO)NC(=O)[C@@H](NC(=O)[C@H](Cc1ccccc1)NC(=O)[C@@H](NC(=O)CNC(=O)[C@H](CCC(=O)O)NC(=O)CCCCC(=O)NCCN1CCCCC1=O)[C@@H](C)O)[C@@H](C)O)[C@@H](C)CC)C(C)C)C(N)=O)C(=O)O` [Compound 20], the EC50 on GLP-1R [1] is > 1000 nM; at GIP-R (EC50 GIP-R/nM, Table 3, cAMP), 1 to 10 nM; at GIP-R (EC50 GIP-R/nM, Table 3A, cAMP), 10 to 100 nM; at GLP-1R [2], 0.1 to 1 nM; on GLP-1R [2] (read-out: EC50 GLP-1R/nM, Table 3A, cAMP) it was 0.1 to 1 nM. Also, the Emax at GIP-R stood at 22%; at GLP-1R [2], 91%.

Consider `CC[C@H](C)[C@H](NC(=O)[C@H](CO)NC(=O)[C@H](Cc1ccc(O)cc1)NC(=O)[C@H](CC(=O)O)NC(=O)[C@H](CO)NC(=O)[C@@H](NC(=O)[C@H](Cc1ccccc1)NC(=O)[C@@H](NC(=O)CNC(=O)[C@H](CCC(=O)O)NC(=O)CSCC(=O)NCCN1C(=O)c2ccc(Cl)cc2C1=O)[C@@H](C)O)[C@@H](C)O)C(=O)N[C@@H](Cc1ccc(O)cc1)C(=O)N[C@@H](CC(C)C)C(=O)N[C@@H](CC(=O)O)C(=O)N[C@@H](CCCCN)C(=O)N[C@@H](CCC(N)=O)C(=O)N[C@@H](C)C(=O)N[C@@H](C)C(=O)NC(C)(C)C(=O)N[C@@H](CCC(=O)O)C(=O)N[C@@H](Cc1ccccc1)C(=O)N[C@H](C(=O)N[C@@H](CC(N)=O)C(=O)N[C@@H](Cc1c[nH]c2ccccc12)C(=O)N[C@@H](CC(C)C)C(=O)N[C@@H](CC(C)C)C(=O)N[C@@H](C)C(=O)NCC(=O)NCC(=O)N1CCC[C@H]1C(=O)N[C@@H](CO)C(=O)N[C@@H](CO)C(=O)NCC(=O)N[C@@H](C)C(=O)N1CCC[C@H]1C(=O)N1CCC[C@H]1C(=O)N1CCC[C@H]1C(=O)N[C@@H](CO)C(=O)N[C@@H](CCCCN)C(N)=O)C(C)C` [Compound 161], for which the EC50 at GLP-1R [1] is > 1000 nM; on GIP-R (read-out: EC50 GIP-R/nM, Table 3, cAMP) it was 1 to 100 nM; on GIP-R (read-out: EC50 GIP-R/nM, Table 3A, cAMP), 1 to 100 nM; at GLP-1R [2] (EC50 GLP-1R/nM, Table 3, cAMP) it was 10 to 100 nM; on GLP-1R [2] (EC50 GLP-1R/nM, Table 3A, cAMP), 10 to 100 nM. Further, the maximal response (Emax) on GIP-R (Table 3, cAMP) lay within 58 to 107%; at GIP-R (Table 3A, cAMP) it was 58 to 107%; at GLP-1R [2] (Table 3, cAMP), 89 to 101%; at GLP-1R [2] (Table 3A, cAMP) it was 89 to 101%.

Regarding `CC[C@H](C)[C@H](NC(=O)[C@H](CO)NC(=O)[C@H](Cc1ccc(O)cc1)NC(=O)[C@H](CC(=O)O)NC(=O)[C@H](CO)NC(=O)[C@@H](NC(=O)[C@H](Cc1ccccc1)NC(=O)[C@@H](NC(=O)CNC(=O)[C@H](CCC(=O)O)NC(=O)[C@H]1CC[C@H](C(=O)NCCN2C(=O)CSC2=O)CC1)[C@@H](C)O)[C@@H](C)O)C(=O)N[C@@H](Cc1ccc(O)cc1)C(=O)N[C@@H](CC(C)C)C(=O)N[C@@H](CC(=O)O)C(=O)N[C@@H](CCCCN)C(=O)N[C@@H](CCC(N)=O)C(=O)N[C@@H](C)C(=O)N[C@@H](C)C(=O)NC(C)(C)C(=O)N[C@@H](CCC(=O)O)C(=O)N[C@@H](Cc1ccccc1)C(=O)N[C@H](C(=O)N[C@@H](CC(N)=O)C(=O)N[C@@H](Cc1c[nH]c2ccccc12)C(=O)N[C@@H](CC(C)C)C(=O)N[C@@H](CC(C)C)C(=O)N[C@@H](C)C(=O)NCC(=O)NCC(=O)N1CCC[C@H]1C(=O)N[C@@H](CO)C(=O)N[C@@H](CO)C(=O)NCC(=O)N[C@@H](C)C(=O)N1CCC[C@H]1C(=O)N1CCC[C@H]1C(=O)N1CCC[C@H]1C(=O)N[C@@H](CO)C(=O)N[C@@H](CCCCN)C(N)=O)C(C)C` [Compound 183], the EC50 is > 1000 nM on GLP-1R [1] (setting [3]); > 1000 nM at GIP-R (setting [4]); > 1000 nM on GIP-R (setting [5]); 10 to 100 nM at GLP-1R [2] (setting [6]); 10 to 100 nM on GLP-1R [2] (setting [7]). Moreover, the Emax at 1 µM on GIP-R (read-out: (Emax) GIP-R at 1 μM, Table 3, cAMP, at 1 μM) was determined as 1.4%. For the same molecule, the Emax at GLP-1R [2] (Table 3, cAMP) came to 95%; at GLP-1R [2] (Table 3A, cAMP), 95%.

On to `CC[C@H](C)[C@H](NC(=O)[C@H](CO)NC(=O)[C@H](Cc1ccc(O)cc1)NC(=O)[C@H](CC(=O)O)NC(=O)[C@H](CO)NC(=O)[C@@H](NC(=O)[C@H](Cc1ccccc1)NC(=O)[C@@H](NC(=O)CNC(=O)[C@H](CCC(=O)O)NC(=O)CSCC(=O)NCCCN1C(=O)c2ccccc2C1=O)[C@@H](C)O)[C@@H](C)O)C(=O)N[C@@H](Cc1ccc(O)cc1)C(=O)N[C@@H](CC(C)C)C(=O)N[C@@H](CC(=O)O)C(=O)N[C@@H](CCCCN)C(=O)N[C@@H](CCC(N)=O)C(=O)N[C@@H](C)C(=O)N[C@@H](C)C(=O)NC(C)(C)C(=O)N[C@@H](CCC(=O)O)C(=O)N[C@@H](Cc1ccccc1)C(=O)N[C@H](C(=O)N[C@@H](CC(N)=O)C(=O)N[C@@H](Cc1c[nH]c2ccccc12)C(=O)N[C@@H](CC(C)C)C(=O)N[C@@H](CC(C)C)C(=O)N[C@@H](C)C(=O)NCC(=O)NCC(=O)N1CCC[C@H]1C(=O)N[C@@H](CO)C(=O)N[C@@H](CO)C(=O)NCC(=O)N[C@@H](C)C(=O)N1CCC[C@H]1C(=O)N1CCC[C@H]1C(=O)N1CCC[C@H]1C(=O)N[C@@H](CO)C(=O)N[C@@H](CCCCN)C(N)=O)C(C)C` [Compound 180], for which the EC50 on GLP-1R [1] (setting [3]) is > 1000 nM; on GIP-R (setting [4]), 10 to 100 nM; on GIP-R (setting [5]), 10 to 100 nM; at GLP-1R [2] (setting [6]) it was 10 to 100 nM; on GLP-1R [2] (setting [7]), 10 to 100 nM. Besides, the Emax at GIP-R (Table 3, cAMP) is 84%; on GIP-R (Table 3A, cAMP), 84%; on GLP-1R [2] (Table 3, cAMP), 94%; on GLP-1R [2] (Table 3A, cAMP), 94%.

Consider `CCCCCCCCCCCCCCCC(=O)N[C@@H](CCC(=O)NCCCC[C@H](NC(=O)[C@H](CO)NC(=O)[C@@H]1CCCN1C(=O)[C@@H]1CCCN1C(=O)[C@@H]1CCCN1C(=O)[C@H](C)NC(=O)CNC(=O)[C@H](CO)NC(=O)[C@H](CO)NC(=O)[C@@H]1CCCN1C(=O)CNC(=O)CNC(=O)[C@H](C)NC(=O)[C@H](CC(C)C)NC(=O)[C@H](CC(C)C)NC(=O)[C@H](Cc1c[nH]c2ccccc12)NC(=O)[C@H](CC(N)=O)NC(=O)[C@@H](NC(=O)[C@H](Cc1ccccc1)NC(=O)[C@H](CCC(=O)O)NC(=O)C(C)(C)NC(=O)[C@H](C)NC(=O)[C@H](C)NC(=O)[C@H](CCC(N)=O)NC(=O)[C@H](CCCCN)NC(=O)[C@H](CC(=O)O)NC(=O)[C@H](CC(C)C)NC(=O)[C@H](Cc1ccc(O)cc1)NC(=O)[C@@H](NC(=O)[C@H](CO)NC(=O)[C@H](Cc1ccc(O)cc1)NC(=O)[C@H](CC(=O)O)NC(=O)[C@H](CO)NC(=O)[C@@H](NC(=O)[C@H](Cc1ccccc1)NC(=O)[C@@H](NC(=O)CNC(=O)[C@H](CCC(=O)O)NC(=O)CCCC(=O)NCCN1CCOCC1=O)[C@@H](C)O)[C@@H](C)O)[C@@H](C)CC)C(C)C)C(N)=O)C(=O)O` [Compound 243], for which the EC50 on GLP-1R [1] (setting [3]) was > 1000 nM; at GIP-R (setting [5]) it was 10 to 100 nM; at GLP-1R [2] (setting [7]), < 0.1 nM. Further, the maximal response (Emax) at GIP-R (Table 3A, cAMP) was determined as 20%; at GLP-1R [2] (Table 3A, cAMP), 103%.

The values are drawn from US20260176320A1, “MODULATORS OF G-PROTEIN COUPLED RECEPTORS” (priority 2018, published 2026).
